Source: patent publication US7544664B2, “Sequences facilitating penetration of a substance of interest” (priority 2003, dated 2009)
Where a SMILES comes first, the peptide text is derived from it. The star is where a group is joined. X3 = CC(=O)O[C@H]1C(=O)[C@@]2(C)[C@H]([C@H](OC(=O)c3ccccc3)[C@]3(O)C[C@H](OC(=O)[C@H](OC(=O)CCCCCN4C(=O)CC(*)C4=O)[C@@H](NC(=O)c4ccccc4)c4ccccc4)C(C)=C1C3(C)C)[C@]1(OC(C)=O)CO[C@@H]1C[C@@H]2O

What was measured:
[1] = tested on: OVCAR-3: human ovary carcinoma; test: cells; assay type: cell-based; details: OVCAR-3 ovary carcinoma, 1 h incubation + 72 h post-incubation
Procedure: OVCAR-3: human ovary carcinoma (origin: ATCC #HTB-161)
(§1) Viability assays were performed. Briefly, cells are seeded in 96-well plates and incubated with increasing concentrations of drugs for 1 hour then cells are rinsed and incubated with fresh medium without drugs for 72 hours. A WST-1 test (from Roche) was performed and IC50 values (drug concentration that inhibits 50% of cell viability) were estimated from sigmoidal regressions.
(§2) We tested the inhibition of in vitro cell proliferation of human carcinoma cells, and we calculated IC50 values=drug concentration that inhibits 50% of cell viability.

[2] = tested on: NCI-H1299: human non small cell lung carcinoma; test: cells; assay type: cell-based; details: H1299 NSCLC, 1 h incubation + 72 h post-incubation
Procedure: NCI-H1299: human non small cell lung carcinoma (NSCLC) (origin: ATCC #CRL-5803)
as §1, §2

[3] = tested on: MES-SA/Dx5: human uterine sarcoma, resistant to paclitaxel; details: read-out: IC50 values, 1 h incubation + 72 h post-incubation
Text: MES-SA/Dx5: human uterine sarcoma, resistant to paclitaxel, expressing high P-gp (origin: ATCC #CCL-1977).

[4] = Solubility in water / aqueous solutions
[5] = tested on: HCT116 human colorectal carcinoma; test: In vivo anti-tumor activity, first experiment (DPV15-doxorubicin); parameters: species or system nude mice; details: Table 13, Q2D3×3W
Procedure: (§3) Mice: Athymic (nu/nu) nude mice, female, NMRI-nu (nu/nu)-Nude Tumor model: HCT116 human colorectal carcinoma (ATCC Number: CCl-247) Experiment has been performed on tumor-bearing mice. The HCT116 tumors have been established by intradermal injection of 100 μl of the cell suspension (10^7 cells/0.1 mL) on the right flank of the mouse. […] After complete dissolution a solution of 0.9% NaCl for injection (Cooper) 0.9% was added.

[6] = tested on: HCT116 human colorectal carcinoma; test: In vivo anti-tumor activity, second experiment (DPV15b-doxorubicin); parameters: species or system nude mice; details: Q2D3×3W
Procedure: as §3

[7] = tested on: HCT116 human colorectal carcinoma; test: In vivo anti-tumor activity of DPV7b-doxorubicin conjugate; parameters: species or system Nude mice; details: Table 15, Q2D3×3W
Procedure: Nude mice are injected with 10^7 HCT116 cells (HCT116 human colorectal carcinoma cell line) intradermically in the right flank. Treatments were performed on established solid tumors (tumors size is about 80 to 90 mm^3) at Day 3. Mice were randomized in different groups (equivalent tumors size), 6 mice by group.

[8] = tested on: HeLa cells; test: Poly-L-Lys inhibition of the internalization of DPV-PO conjugates; assay type: cell-based; details: inhibition of DPV-PO internalization (25 μg/ml, 4 h) in HeLa cells
Procedure: In order to verify this hypothesis, we tested the inhibition of DPV-PO internalization in HeLa cells in the presence of Poly-L-Lysine in the incubation medium: positively charged poly-L-Lys should bind to the negative charges of the cell surface, and prevent the binding of DPVs.
HeLa cells cultivated on glass labtek slides for 24 hours were pre-incubated with the indicated concentrations of poly-L-Lys for 1 hour at 37° C. Cells were then incubated for 4 hours in the presence of DPV-PO conjugates at 25 μg/ml in cell culture medium containing the same quantity of poly-L-Lys. Internalized PO was quantified after extensive treatment with trypsin to eliminate surface bound material, and subsequent cell lysis. Results are given in picogram PO per 1000 cells.

CC(=O)O[C@H]1C(=O)[C@@]2(C)[C@H]([C@H](OC(=O)c3ccccc3)[C@]3(O)C[C@H](OC(=O)[C@H](OC(=O)CCCCCN4C(=O)CC(SC[C@H](NC(=O)[C@H](CCCNC(=N)N)NC(=O)[C@H](CO)NC(=O)[C@H](CCC(N)=O)NC(=O)[C@H](CCCNC(=N)N)NC(=O)[C@H](CCC(=O)O)NC(=O)[C@H](CCCNC(=N)N)NC(=O)[C@H](CCCNC(=N)N)NC(=O)[C@H](CC(C)C)NC(=O)[C@H](CCCNC(=N)N)NC(=O)[C@H](CO)NC(=O)[C@H](CCC(N)=O)NC(=O)[C@H](CCCNC(=N)N)NC(=O)[C@H](CCC(=O)O)NC(=O)[C@H](CCCNC(=N)N)NC(=O)[C@H](CCCNC(=N)N)NC(=O)[C@@H](N)CC(C)C)C(=O)O)C4=O)[C@@H](NC(=O)c4ccccc4)c4ccccc4)C(C)=C1C3(C)C)[C@]1(OC(C)=O)CO[C@@H]1C[C@@H]2O (stereo partly shown) [DPV15-E-PTX] (H-LRRERQSRLRRERQSRC(X3)-OH)
IC50 [1]: 370 ± 50 nM
IC50 [2]: 4300 ± 2700 nM
IC50 [3]: 33000 ± 5700 nM
solubility ([4]; water): ≥ 10000 µg/mL

COc1cccc2c1C(=O)c1c(O)c3c(c(O)c1C2=O)C[C@@](O)(C(=O)CO)C[C@@H]3O[C@H]1C[C@H](N)[C@H](O)[C@H](C)O1 [Doxorubicin]
IC50 ([1]; Homo sapiens): 7300 ± 4200 nM
IC50 ([2]; Homo sapiens, NCI-H1299): 620 ± 320 nM
Tumor doubling time ([5]; 3.5 μmol/kg i.v.): 10.20 days
Tumor growth delay ([5]; 3.5 μmol/kg i.v.): 21.20 days
Tumor growth delay ([5]; 5 μmol/kg i.v.): 26.40 days
Tumor doubling time ([5]; 6.5 μmol/kg i.v.): 22.90 days
Tumor growth delay ([5]; 6.5 μmol/kg i.v.): 35.29 days
mice body weight loss ([6]; 7 μmol/kg i.v.): > 20%
Tumor growth delay ([6]; Table 14, 5 μmol/kg i.v.): 27.86 days
Tumor growth delay ([6]; Table 14, 6 μmol/kg i.v.): 29.98 days
Tumor doubling time ([6]; Table 14, 7 μmol/kg i.v.): 13.38 days
Tumor growth delay ([6]; Table 14, 7 μmol/kg i.v.): 35.16 days
Tumor doubling time ([7]; 3.5 μmol/kg i.v.): 10.2 days
Tumor growth delay ([7]; 3.5 μmol/kg i.v.): 21.20 days
Tumor growth delay ([7]; 5 μmol/kg i.v.): 26.40 days
Tumor doubling time ([7]; 6.5 μmol/kg i.v.): 22.9 days
Tumor growth delay ([7]; 6.5 μmol/kg i.v.): 35.29 days

CC(=O)O[C@H]1C(=O)[C@@]2(C)[C@H]([C@H](OC(=O)c3ccccc3)[C@]3(O)C[C@H](OC(=O)[C@H](O)[C@@H](NC(=O)c4ccccc4)c4ccccc4)C(C)=C1C3(C)C)[C@]1(OC(C)=O)CO[C@@H]1C[C@@H]2O [Paclitaxel (Hauser), Paclitaxel]
IC50 ([1]; Homo sapiens): 40 ± 20 nM
IC50 ([2]; Homo sapiens, NCI-H1299): 230 ± 170 nM
Solubility in water / aqueous solutions [4]: not soluble

Poly-L-Lysine
IC50 (concentration at which 50% of the maximum internalization is achieved) [8]: around 25 μg/ml
